Measured values published in patent US8629242B2, “Methods of inhibiting calcineurin with ApoE analogs” (Cognosci, Inc., priority 2007, dated 2014).
Where two headings read alike, the source gives them in different places. Where a SMILES comes first, the peptide text is derived from it. [ ]: non-standard residue; d: D form. Arg(NO2) = N=C(NCCC[C@H](N)C(=O)O)N[N+](=O)[O-]; Aib = CC(C)(N)C(=O)O

Legend:
Maximum tolerated dose = format: in vivo; conditions: in vivo
Description: To fully evaluate the use of ApoE analogs as therapeutic compounds, the margin of safety should also be determined. Towards that end, we determined the maximum tolerated dose of COG 112, COG 248, and COG 345 when administered by intravenous and subcutaneous injection.

[1] = test system: oligodendrocyte precursor cells (OPC)/microglia mixed culture; assay: LPS-induced OPC cell death in OPC/microglia mixed culture; format: cell-based, rat; conditions: 1 μM, LPS 10 ng/ml, 24 hours
Protocol: FIG. 9. COG 112 protects OPCs from LPS-induced cell death in OPC/microglia mixed culture. LPS (final conc. 10 ng/ml) was added to an OPC/microglia mixed culture with or without 1 μM COG 112. The prefix peptide of COG 112, antennapedia, was used as a negative control. Cells were fixed with 4% formaldehyde and stained with the OPC marker, NG2, and counterstained with hoescht. (A) LPS-treated cultures; (B) LPS+antennapedia (Antp)-treated cultures; (C) LPS+COG 112-treated cultures; (D) Bar graph summarizing the number of NG2+ cells per field in each condition. ** p<0.01.
FIG. 19. COG 345 promotes remyelination in lysolecithin-induced demyelination model of cerebellum slices. Significant demyelination was induced by lysolecithin (0.5 mg/ml) in cerebellar slices. COG 112 or COG 345 (1 μM) was added on day 3 when full demyelination was achieved. 4 days later, the slices were fixed and double stained with myelin marker MBP (green) and Purkinje cell marker calbindin (red). (A) Untreated-slices; (B) lysolecithin-treated slices; (C) COG 112-treated slices after lysolecithin exposure; (D) COG 345-treated slices after lysolecithin exposure. E-F. ApoE analogs protect OPCs from LPS-induced cell death in OPC/microglia mixed culture. OPCs and microglia derived from brain culture of P2 rat pups were plated in 96-well plates in 1:1 ratio. LPS (10 ng/ml) together with 1 μM of the indicated ApoE analogs was added to the cultures. After 24 hours, OPC cell death was quantified by LDH assay (E) and MTT assay (F). Statistical analysis was conducted by one-way ANOVA followed by Dunnett comparison vs. LPS group. * P<0.01, ** P<0.001, n=3.
A primary culture prepared from the brains of P2 Sprague-Dawley rat pups was grown for seven days. Microglia and OPCs were shaken off from the primary culture with an orbital shaker at 150˜200 rpm. The OPCs and microglia were plated in 24-well plates at a 1:1 ratio with 5×10^4 cells per well of each cell type. After 24 hours, LPS (final conc. 10 ng/ml) was added with or without 1 μM COG 112. The prefix peptide of COG 112, antennapedia, was used as a negative control. After incubation for 72 hours, the medium was removed and cells were fixed with 4% formaldehyde and stained with the OPC marker, NG2, and counterstained with hoescht. Five fields from each of the wells were randomly chosen to count the number of NG2-positive cells.
To further assess the ability of the novel ApoE analogs to promote remyelination, the effect of the analogs on OPC survival was assessed in an OPC/microglia mixed culture. OPC and microglia derived from primary culture of P2 rat pup brain were plated on 96-well plates in 1:1 ratio. […] After 24 hours, cell death of OPC was quantified by both LDH and MTT assays.

[2] = Anti-inflammatory properties in vitro or in vivo (general statement)
Description: The following ApoE analogs, COG 112, COG 1410, COG 241, COG 248, COG 68, and COG 345, have been identified as having improved properties as compared to the ApoE peptide, COG 133.

Calcineurin = target: T1, Calcineurin (Homo sapiens, UniProt Q08209); assay: Cell-free calcineurin phosphatase activity assay (BioMol kit); format: biochemical; conditions: various concentrations
T1 construct: purchased BioMol AK-804
Protocol: FIG. 14. ApoE analogs bind directly to calcineurin and inhibit its activity. […] (B) Immunoprecipitation of human brain lysate with a biotin-COG 133 conjugate. Lane 1=markers; lane 2=clear bead; lane 3=biotin-COG 133 bead conjugate; and lane 4=10 μg lysate. (C) Immunoprecipitation of different glial cultures with a biotin-COG 133 conjugate. Lane 1=markers; lane 2=astrocyte; lane 3=microglia; and lane 4=oligodendrocyte precursor cells (OPC). Blots in B and C were probed for calcineurin (PP2B).
Calcineurin activity was measured in a cell-free in vitro assay in the presence of various concentrations of COG 133 (SEQ ID NO: 1), COG 112 (SEQ ID NO: 5), COG 68 (SEQ ID NO: 7), COG 125 (Ac-AS(Aib)LRKL(Aib)KR—COOH; SEQ ID NO: 8), or antennapedia (antp), the prefix peptide for COG 112. […] Using a BioMol Calcineurin Phosphatase Activity Kit (Cat. #AK-804), the assay was conducted according to manufacturer's instructions. […] This inhibition of calcineurin activity by ApoE analogs is mediated by a direct interaction of the ApoE analog with the phosphatase.

microglia cell line BV2 = assay: LPS-induced NO and TNF-α release in BV2 microglia; format: cell-based, murine; conditions: LPS 10 ng/ml, 24 hours
Protocol: FIG. 16. […] Series concentrations of ApoE analogs were added to culture medium together with LPS (10 ng/ml). 24 hours later, culture medium was collected for measurement of NO by Griess assay or TNF-α by ELISA. […] ApoE analogs (10 μM) were added to the cell medium of human macrophage U937 5 minutes prior to PMA+LPS treatment. The release of superoxide in culture medium was measured by Luminol assay kit (Calbiochem).
The murine microglia cell line BV2 was used as the first screening platform to compare the potency of ApoE analogs in anti-inflammatory activity. In response to LPS, BV2 produces amounts of reactive radical NO and inflammatory cytokines, such as TNF-α and IL-6. We stimulated the cells with LPS (10 ng/ml) in the presence of several concentrations of each of the ApoE analogs. We measured NO in medium by Griess assay and TNF-α by ELISA 24 hours after LPS stimulation of the cells. The IC50 value was calculated for each of the ApoE analogs.

[3] = test system: PLP-induced relapsing-remitting experimental autoimmune encephalomyelitis (EAE) model; assay: PLP-induced relapsing-remitting EAE model; format: in vivo; design: CSmax during relapse (mean ± SEM) / Area under curve (mean ± SEM): scale not given here; conditions: 4 mg/kg s.c.
Protocol: To further compare the activity of the various ApoE analogs, the efficacy of the analogs was assessed in a PLP-induced relapsing-remitting experimental autoimmune encephalomyelitis (EAE) model. […] The second dose was administered the next day followed by three times a week (M, W, F). Relapse rate represents the number of animals experiencing a relapse, while the CSmax indicates the maximal clinical score during relapse. Area under curve represents the area under the curve in a plot of clinical score vs. days post-inoculation (out to 60 days). […] The improvement in relapse rate and clinical score in the EAE model by ApoE analog treatment may be due, in part, to the remyelination-promoting effect of the ApoE analogs.

enriched OPC cultures = assay: Number of mature oligodendrocytes after differentiation of enriched OPC culture; format: cell-based, rat; conditions: 2 μM COG 133, 1 μM COG 112 or 1 μM COG 68 for four days, then six days differentiation without analog
Protocol: FIG. 11. ApoE analogs increase the number of mature oligodendrocytes in culture. ApoE analogs (COG 133, COG 112, and COG 68) were added to enriched OPC culture in proliferation media for four days. Cultures were then differentiated in the absence of the ApoE analogs. Cells were labeled with a GST-π antibody to detect mature oligodendrocytes.
Since COG 112 increased the proliferation of OPCs, we next examined whether the ApoE analogs could also increase the number of mature oligodendrocytes. Enriched OPC cultures were prepared as described for the previous experiment. 2 μM COG 133 (SEQ ID NO: 1), 1 μM COG 112 (SEQ ID NO: 5), or 1 μM COG 68 (Ac-[…]-NH2; SEQ ID NO: 7) were added to the enriched OPC cultures in proliferation media for four days. The media was then replaced with differentiation medium without the ApoE analogs for an additional six days. Cells were labeled with a GST-π antibody to detect mature oligodendrocytes.

Compound: CC(=O)N[C@@H](CC(C)C)C(=O)N[C@@H](CCCNC(=N)N)C(=O)N[C@H](C(=O)N[C@@H](CCCNC(=N)N)C(=O)N[C@@H](CC(C)C)C(=O)N[C@@H](C)C(=O)N[C@@H](CO)C(=O)NC(C)(C)C(=O)N[C@@H](CC(C)C)C(=O)N[C@@H](CCCNC(=N)N)C(=O)N[C@@H](CCCCN)C(=O)N[C@@H](CC(C)C)C(=O)N[C@@H](CCCNC(=N)N)C(=O)N[C@@H](CCCCN)C(=O)N[C@@H](CCCNC(=N)N[N+](=O)[O-])C(=O)N[C@@H](CC(C)C)C(=O)N[C@@H](CC(C)C)C(N)=O)C(C)C [COG 248, acetyl-LRVRLAS-Aib-LRKLRK(nitro-Arg)LL-amide] (Ac-LRVRLAS[Aib]LRKLRK[Arg(NO2)]LL-NH2)
- MTD (Maximum tolerated dose; sc, subcutaneous injection, read-out: Maximum Tolerated Dose Subcutaneous): > 150 mg/kg
- MTD (Maximum tolerated dose; intravenous injection, read-out: Maximum Tolerated Dose Intravenous): 25 mg/kg

Compound: CCCCCCCCc1ccc(CCC(N)(CO)CO)cc1 [FTY720, reference compound]
- OPC cell death by LDH and MTT assays [1]: did not show a clear protective effect

Compound: acetyl-AS-Aib-LRKL-Aib-KR-amide (Ac-AS[Aib]LRKL[Aib]KR-NH2; SMILES CC(=O)N[C@@H](C)C(=O)N[C@@H](CO)C(=O)NC(C)(C)C(=O)N[C@@H](CC(C)C)C(=O)N[C@@H](CCCNC(=N)N)C(=O)N[C@@H](CCCCN)C(=O)N[C@@H](CC(C)C)C(=O)NC(C)(C)C(=O)N[C@@H](CCCCN)C(=O)N[C@@H](CCCNC(=N)N)C(N)=O) [COG 125, reference compound]
- anti-inflammatory properties [2]: did not exhibit any anti-inflammatory properties
- inhibition of calcineurin activity (Calcineurin): Inactive

Compound: acetyl-AS-Aib-LRKL-Aib-KRLL-amide [COG 1410]
- activity in suppression of microglia activation (NO by Griess assay, TNF-α by ELISA) (microglia cell line BV2): clearly superior to that of COG 133

Compound: acetyl-Aib-LRKL-Aib-(n acetyl K)RLL-amide (Ac-[Aib]LRKL[Aib]K(Ac)RLL-NH2; SMILES CC(=O)NCCCC[C@H](NC(=O)C(C)(C)NC(=O)[C@H](CC(C)C)NC(=O)[C@H](CCCCN)NC(=O)[C@H](CCCNC(=N)N)NC(=O)[C@H](CC(C)C)NC(=O)C(C)(C)NC(C)=O)C(=O)N[C@@H](CCCNC(=N)N)C(=O)N[C@@H](CC(C)C)C(=O)N[C@@H](CC(C)C)C(N)=O) [COG 241]
- Area under curve (mean ± SEM) ([3]; clinical score vs days post-inoculation, out to 60 days): 13.5 ± 2.6
- CSmax during relapse (mean ± SEM) ([3]; maximal clinical score during relapse): 2.3 ± 0.8
- Relapse Rate ([3]; number of animals experiencing a relapse): 8/15

Compound: acetyl-RRLSYSRRRFLRVRLASHLRKLRKRLL-amide (Ac-RRLSYSRRRFLRVRLASHLRKLRKRLL-NH2) [COG 68, ApoE peptide linked to the protein transduction domain SynB3]
- inhibition of calcineurin activity (Calcineurin): dose-dependent inhibition
- number of mature oligodendrocytes (GST-π) (enriched OPC cultures): significantly increased the number of mature oligodendrocytes
- activity in suppression of microglia activation (NO by Griess assay, TNF-α by ELISA) (microglia cell line BV2): clearly superior to that of COG 133
